{"source": "patent US4122189A", "about": "“Medicine for renal diseases” (priority 1976, dated 1978)", "key": {"[1]": {"tested_on": "mouse", "assay": "Toxicity test (LD50)", "assay_type": "in vivo, ddY type mice", "settings": "mice, oral and intraperitoneal", "experimental": "The test was carried out by the oral dose and the intraperitoneal injection of each solution in 10 ddY type male mice and 10 ddY femal mice. The results after 72 hours from the administration were observed. Probit analysis was used for statistical treatment of mortality."}, "[2]": {"tested_on": "hetero antikidney serum nephritis", "assay": "Therapy for hetero antikidney serum nephritis", "assay_type": "in vivo, Wister type male rats", "settings": "1000 mg/kg/day oral", "experimental": "Antikidney serum (rabbit) prepared in accordance with the Heymann method was intravenously injected into tail vein at a dose of 0.5 ml per 100 g of rat at one time per day.\nIn Table 3, the symbols for tissue observation mean the following conditions of tissues.\nA: proliferation of polymorphs of glomeruli\nC: thickning of the basement membrane of the glomerular capillaries\nD: obliteration of the glomerular capillary loops\nF: exudate in Bowman's subcapsule space\nG: thickning of Bowman's capsule\nH: crescent formation of glomeruli\nI: proteinaeous fluid in the tubli\nJ: swelling of tublar epithelium\nK: proliferation of interstitial tissue cells\nIn Table 4, the degree of lesions were rated as follows:\n0: no lesion of tissue is found;\n0.5: slight lesion of tissue is found;\n1: clear sporadic or slight lesion of tissue is found;\n3: inflamed or clear lesion of tissue is found.\nThe average of ratings for 5 rats in each group is shown.\nThe level of significance was considered as the same with those of Table 1."}, "[3]": {"tested_on": "Aminonucleoside nephrose", "assay": "Therapy for Aminonucleoside nephrose (urine and blood biochemical observations)", "assay_type": "in vivo, SD type male rats", "settings": "1000 mg/kg/day oral, 10 days", "experimental": "SD type male rats (weight about 100 g) were fed in each individual room of a metabolism cage under the free water and feed supply.\nThe rats were classified as the normal group for eight rats, the renal disease group for eight rats and the therapy group for eight rats.\n0.3% Aminoucleoside aqueous solution (hereinafter referring to as AN) was administrated by intramuscular injection at a dose of 0.3 ml per 100 g of the rat.\nThe administration was continued from the 1st day to the 14th day at one time per day.\nThe data in Tables are average value for eight rats in each group.\nThe difference between the renal disease group and the therapy group was significant. The symbol * means the existence of significant difference in 5% of the level of significance and the symbol (*) means the existence of significant difference in 5 to 1% of the level of significance. The symbol -- means non-significant difference."}, "[4]": {"tested_on": "patients having excessive urinary protein", "settings": "150 to 1800 mg/day, with or without additional medicines", "experimental": "When used in combination, the additional medicines were dosed in the amount usual for each of such additional medicines.\nThe amount of urine protein was measured for the clinical tests. The elimination or remarkable degree of reduction of urine protein was considered to be effective.\nThe non-steroid anti-inflammatory agents such as Ibuprofen, Indomethacin, Azapropazone, and steroids such as Predonizolone and antibiotics such as Cephalexin, methyl chlorophenyl iso-oxazolyl penicillin were used as the additional medicines."}, "[5]": {"settings": "average lesion rating 0-3 (3 inflamed or clear), normal 0, renal disease group 1.1, significance *"}, "[6]": {"settings": "average lesion rating 0-3 (3 inflamed or clear), normal 0, renal disease group 1.7, significance *"}}}
{"smiles": "C[S+](C)CCC(N)C(=O)O", "note": "(stereo not shown) [Methyl methionine sulfonium chloride]", "values": [{"measurement": "toxicity", "setting": "[1]", "value": "low toxicity"}, {"measurement": "Urine urea", "setting": "[2]; 9 days, normal 6.3, renal disease group 121, non-significant", "value": 104, "unit": "mg/day"}, {"measurement": "Urea nitrogen in blood", "setting": "[2]; 9 days, normal 23, renal disease group 25, non-significant", "value": 24, "unit": "mg/dL"}, {"measurement": "Observation of tissue F: exudate in Bowman's subcapsule space", "setting": "[2]; average lesion rating 0-3 (3 inflamed or clear), normal 0, renal disease group 0, non-significant", "value": 0}, {"measurement": "Observation of tissue K: proliferation of interstitial tissue cells", "setting": "[2]; average lesion rating 0-3 (3 inflamed or clear), normal 0, renal disease group 0.2, non-significant", "value": 0.3}, {"measurement": "Observation of tissue B: thrombus formation", "setting": "[2]; [5]", "value": 0.1}, {"measurement": "Observation of tissue G: thickning of Bowman's capsule", "setting": "[2]; [5]", "value": 0}, {"measurement": "Observation of tissue H: crescent formation of glomeruli", "setting": "[2]; [5]", "value": 0}, {"measurement": "Observation of tissue C: thickning of the basement membrane of the glomerular capillaries", "setting": "[2]; [6]", "value": 0.4}, {"measurement": "Observation of tissue D: obliteration of the glomerular capillary loops", "setting": "[2]; [6]", "value": 0.3}, {"measurement": "Observation of tissue E: anemia", "setting": "[2]; average lesion rating 0-3 (3 inflamed or clear), normal 0, renal disease group 2.2, significance *", "value": 0.1}, {"measurement": "Observation of tissue J: swelling of tublar epithelium", "setting": "[2]; average lesion rating 0-3 (3 inflamed or clear), normal 0.5, renal disease group 1.6, non-significant", "value": 1.3}, {"measurement": "Observation of tissue I: proteinaeous fluid in the tubli", "setting": "[2]; average lesion rating 0-3 (3 inflamed or clear), normal 0.6, renal disease group 1.8, significance (*)", "value": 0.8}, {"measurement": "Observation of tissue A: proliferation of polymorphs of glomeruli", "setting": "[2]; average lesion rating (0 none, 0.5 slight, 1 clear sporadic or slight, 3 inflamed or clear), normal 0, renal disease group 1.4, significance (*)", "value": 0.5}, {"measurement": "Urine albumin", "setting": "[3]; normal 0.1, renal disease group 2.4, significance *", "value": 1.6, "unit": "g/dL"}, {"measurement": "Urine protein", "setting": "[3]; normal 0.6, renal disease group 5.2, significance *", "value": 4.0, "unit": "g/dL"}, {"measurement": "Serum albumin", "setting": "[3]; normal 2.60, renal disease group 0.49, significance *", "value": 1.25, "unit": "g/dL"}, {"measurement": "Serum K^+", "setting": "[3]; normal 5.1, renal disease group 5.4, non-significant", "value": 5.6, "unit": "m Eq/l"}, {"measurement": "Serum total protein", "setting": "[3]; normal 6.48, renal disease group 3.60, significance *", "value": 4.47, "unit": "g/dL"}, {"measurement": "Urine albumin", "setting": "[3]; normal 6.6, renal disease group 196, significance *", "value": 106, "unit": "mg/day"}, {"measurement": "Urine pH", "setting": "[3]; normal 6.7, renal disease group 6.5, significance (*)", "value": 6.2}, {"measurement": "Urine amount", "setting": "[3]; normal 9.4, renal disease group 8.5, significance (*)", "value": 6.9, "unit": "mL/day"}, {"measurement": "Serum urea nitrogen", "setting": "[3]; normal 25.2, renal disease group 44.8, significance *", "value": 23.8, "unit": "mg/dL"}, {"measurement": "Urine protein", "setting": "[3]; normal 54, renal disease group 441, significance *", "value": 294, "unit": "mg/day"}, {"measurement": "Serum cholesterol", "setting": "[3]; normal 84.3, renal disease group 277, significance *", "value": 149, "unit": "mg/dL"}, {"measurement": "Serum Na^+", "setting": "[3]; normal 134, renal disease group 135, non-significant", "value": 134, "unit": "m Eq/l"}, {"measurement": "Urine Na", "setting": "[3]; normal 160, renal disease group 54, significance *", "value": 109, "unit": "m Eq/l"}, {"measurement": "Serum glycose", "setting": "[3]; normal 169, renal disease group 135, non-significant", "value": 138, "unit": "mg/dL"}, {"measurement": "Weight", "setting": "[3]; normal 180, renal disease group 196, significance *", "value": 176, "unit": "g"}, {"measurement": "Urine K", "setting": "[3]; normal 230, renal disease group 204, non-significant", "value": 210, "unit": "m Eq/l"}, {"measurement": "effective cases (elimination or remarkable reduction of urine protein)", "setting": "[4]", "value": 32, "unit": "cases among 45 patients"}]}
